Several values for one entry are separate records, joined by “and”; a condition that tells them apart may be missing. Equal values may be shown once.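 Test compounds were applied to cells in 96-well plates for 48 hours at 5 doses. Abbreviation: GI50, concentration required for 50% inhibition of growth. TGI marks complete inhibition of growth.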 Some results are limits rather than exact numbers.

Some test systems named below: EKVX NSCLC; HCC-2998 colon; IGROV1 ovarian; K-562 leukemia; MALME-3M melanoma; MDA-MB-435; NCI-H522 lung; SF-295 CNS; SK-OV-3 ovarian; T-47D breast.
What all share (assay): NCI-60 cell line screen, 48 h

`COc1ccc(/C=N\NC(=O)c2ccc3nc(-c4ccc(Cl)cc4)[nH]c3c2)cc1`: the GI50 with EKVX NSCLC was 2.11 µM; in the experiment with HCC-2998 colon it was 2.57 µM; in the experiment with IGROV1 ovarian, 1.65 µM; with K-562 leukemia, 2.69 µM; in the experiment with MALME-3M melanoma, 1.67 µM; in the experiment with MDA-MB-435, 3.11 µM. The GI50 is 7.6 µM in the experiment on NCI-H522 lung, 2.23 µM in the experiment on SF-295 CNS, 2.3 µM in the experiment with SK-OV-3 ovarian and 1.94 µM with T-47D breast. For the same molecule, the TGI was 5.84 µM in the experiment on EKVX NSCLC; 6.44 µM with HCC-2998 colon; 3.97 µM in the experiment on IGROV1 ovarian; 11.2 µM with K-562 leukemia; 3.63 µM in the experiment on MALME-3M melanoma; 9.84 µM with MDA-MB-435. Moreover, the TGI in the experiment with NCI-H522 lung turned out to be 81.5 µM; in the experiment on SF-295 CNS, 5.05 µM; with SK-OV-3 ovarian, 12.8 µM; with T-47D breast, 4.83 µM.

Take `O=c1c2c(=NCCN3CCCC3)cc3c(=O)n(CCCN4CCOCC4)c(=O)c4ccc(c(O)n1CCCN1CCOCC1)c2c4-3`: the GI50 with EKVX NSCLC is 0.153 µM; in the experiment on HCC-2998 colon, 0.0603 µM; with IGROV1 ovarian, 0.0479 µM; in the experiment on K-562 leukemia it was under 0.0213 µM; in the experiment with MALME-3M melanoma, 0.346 µM; in the experiment with MDA-MB-435 it was 0.122 µM. Besides, the GI50 was 0.102 µM with NCI-H522 lung, 0.231 µM in the experiment on SF-295 CNS, 0.381 µM in the experiment with SK-OV-3 ovarian and 0.273 µM in the experiment on T-47D breast. Besides, the TGI was 0.427 µM in the experiment on EKVX NSCLC; 0.563 µM in the experiment on HCC-2998 colon; 1.5 µM in the experiment with IGROV1 ovarian; over 70.4 µM with K-562 leukemia; 1.22 µM in the experiment on MALME-3M melanoma; 0.264 µM with MDA-MB-435. The TGI in the experiment with NCI-H522 lung was 0.438 µM; with SF-295 CNS, 0.84 µM; in the experiment with SK-OV-3 ovarian it was 2.15 µM; in the experiment on T-47D breast it was 2.2 µM.

As to `COc1ccc(-n2cc(-c3cc(OC)c(OC)c(OC)c3)[nH]c2=S)cc1Cl`, the GI50 in the experiment on EKVX NSCLC is 37.3 µM; in the experiment on HCC-2998 colon it was 39.7 µM; with IGROV1 ovarian, 25.6 µM; with K-562 leukemia it was over 100 µM; in the experiment with MALME-3M melanoma, 40.1 µM; in the experiment with MDA-MB-435, over 100 µM. Moreover, the GI50 in the experiment with NCI-H522 lung was over 100 µM; in the experiment with SF-295 CNS, 43 µM; in the experiment with SK-OV-3 ovarian, 17 µM; with T-47D breast, 29 µM. The TGI in the experiment on EKVX NSCLC, in the experiment with HCC-2998 colon, in the experiment with IGROV1 ovarian, in the experiment with K-562 leukemia, in the experiment on MALME-3M melanoma and in the experiment on MDA-MB-435 was over 100 µM throughout. Further, the TGI was over 100 µM in the experiment with NCI-H522 lung, over 100 µM in the experiment on SF-295 CNS, 48.3 µM in the experiment on SK-OV-3 ovarian and over 100 µM with T-47D breast.

Consider `Cc1ccc(-c2cc(-c3ccc(C)cc3)nc(N3CCN(CCNc4ccnc5cc(Cl)ccc45)CC3)n2)cc1`, for which the GI50 in the experiment with EKVX NSCLC was 5.65 µM; in the experiment on HCC-2998 colon it was 4.82 µM; with IGROV1 ovarian, 3.08 µM; with K-562 leukemia, 2.4 µM; in the experiment on MALME-3M melanoma it was 1.07 µM; in the experiment on MDA-MB-435, 1.76 µM. Further, the GI50 with NCI-H522 lung was 5.65 µM; in the experiment on SF-295 CNS it was 5.27 µM; in the experiment with SK-OV-3 ovarian, 5.49 µM; in the experiment with T-47D breast, 3.21 µM. The TGI with EKVX NSCLC is 20 µM; with HCC-2998 colon, 16.2 µM; in the experiment on IGROV1 ovarian, 12.3 µM; in the experiment with K-562 leukemia, over 50 µM; in the experiment with MALME-3M melanoma it was 2.28 µM; in the experiment with MDA-MB-435 it was 6.85 µM. Also, the TGI came out at 22 µM in the experiment on NCI-H522 lung, 15.4 µM with SF-295 CNS, 14.2 µM with SK-OV-3 ovarian and 17.9 µM with T-47D breast.

With `CCCC(C)c1c(Cl)nc(Cl)nc1Cl` (stereo unspecified), the TGI in the experiment with EKVX NSCLC is 36.9 µM; in the experiment with HCC-2998 colon, 29.9 µM; in the experiment with IGROV1 ovarian it was 36.4 µM; with K-562 leukemia, over 100 µM; in the experiment with MALME-3M melanoma, 55.6 µM; with MDA-MB-435 it was 21 µM. The TGI was found to be 5.32 µM with NCI-H522 lung, 37 µM in the experiment with SF-295 CNS, 43.8 µM in the experiment with SK-OV-3 ovarian and 29 µM with T-47D breast.

Regarding `O=C1/C(=C/c2ccc(Cl)cc2)CCC1CN1CCOCC1` (stereo unspecified), the TGI came to 30.7 µM in the experiment on EKVX NSCLC; 23 µM in the experiment with HCC-2998 colon; 10.5 µM in the experiment on IGROV1 ovarian; 8.06 µM in the experiment on K-562 leukemia; 20.3 µM with MALME-3M melanoma; 14.3 µM in the experiment on MDA-MB-435. The TGI with NCI-H522 lung came to 5.15 µM; in the experiment on SF-295 CNS, 38.1 µM; in the experiment on SK-OV-3 ovarian it was 31.9 µM; with T-47D breast, 6.25 µM.

With `O=C1C(Br)=C(Br)C(=O)c2ccccc21`, the GI50 with EKVX NSCLC is 100 µM and 20 µM; in the experiment with IGROV1 ovarian it was 16.9 µM and 6.06 µM; in the experiment with MALME-3M melanoma it was 16.8 µM and 6.59 µM; in the experiment with NCI-H522 lung it was 16.3 µM and 3.77 µM; in the experiment on SF-295 CNS it was 91.1 µM and 14.6 µM; with SK-OV-3 ovarian, 16.1 µM and 5.4 µM. The TGI in the experiment with EKVX NSCLC was > 100 µM and 39.9 µM; in the experiment with HCC-2998 colon, 46.3 µM and 34.5 µM; in the experiment on IGROV1 ovarian, 45.5 µM and 17.4 µM; in the experiment with K-562 leukemia it was over 100 µM; in the experiment with MALME-3M melanoma, 31 µM and 16 µM; with MDA-MB-435 it was 21.8 µM. Also, the TGI is 29.9 µM and 15.5 µM with NCI-H522 lung; > 100 µM and 28.6 µM in the experiment with SF-295 CNS; 31.1 µM and 13.2 µM in the experiment on SK-OV-3 ovarian; 12.5 µM in the experiment with T-47D breast.

As to `CC[C@H](C)[C@H](NC(=O)NC(C)(C)C)C(=O)N(C)[C@H](C[C@@H](OC(C)=O)c1nc(C(=O)N[C@@H](Cc2ccccc2)C[C@H](C)C(=O)OC)cs1)C(C)C`, the GI50 in the experiment with EKVX NSCLC is 1.24 µM; in the experiment with HCC-2998 colon it was 0.507 µM; in the experiment on IGROV1 ovarian, 0.556 µM; in the experiment on K-562 leukemia it was 0.461 µM; in the experiment on MALME-3M melanoma it was over 5.51 µM; in the experiment with MDA-MB-435, 0.0884 µM. In addition, the GI50 in the experiment on NCI-H522 lung is 0.107 µM; in the experiment on SF-295 CNS, 0.485 µM; in the experiment with SK-OV-3 ovarian, 0.734 µM; in the experiment on T-47D breast, over 19 µM. In addition, the TGI in the experiment with EKVX NSCLC is over 25 µM; in the experiment on HCC-2998 colon, over 25 µM; with IGROV1 ovarian, over 25 µM; in the experiment with K-562 leukemia, over 25 µM; in the experiment with MALME-3M melanoma, over 25 µM; in the experiment with MDA-MB-435 it was 0.486 µM. In addition, the TGI in the experiment with NCI-H522 lung is 0.765 µM; in the experiment with SF-295 CNS it was 1.83 µM; with SK-OV-3 ovarian, over 25 µM; in the experiment with T-47D breast it was over 25 µM.

These data come from PubChem BioAssay (NCI).
